Assay results reported in the NIST ThermoML archive (doi:10.1016/j.fluid.2014.04.002).

Test: xn = mol fraction of the nth substance listed
Details: 101 kPa, Liquid; for viscosity: Concentric cylinders viscometry; for mass density: Vibrating tube method

COCCOCCOCCOCCOC [2,5,8,11,14-pentaoxapentadecane] + CCOC(=O)C(C)O
Details | mass density, 308.15 K [kg/m3] | mass density, 313.15 K [kg/m3] | mass density, 318.15 K [kg/m3] | mass density, 323.15 K [kg/m3] | viscosity, 308.15 K [mPa·s] | viscosity, 313.15 K [mPa·s] | viscosity, 318.15 K [mPa·s] | viscosity, 323.15 K [mPa·s]
x2 = 0 | 998.153 | 993.523 | 988.892 | 984.262 | 2.668 | 2.407 | 2.185 | 2.003
x2 = 0.0999 | 999.806 | 995.132 | 990.453 | 985.775 | 2.626 | 2.367 | 2.147 | 1.972
x2 = 0.1999 | 1001.67 | 996.945 | 992.217 | 987.487 | 2.593 | 2.336 | 2.115 | 1.943
x2 = 0.2999 | 1003.5 | 998.729 | 993.944 | 989.156 | 2.557 | 2.301 | 2.081 | 1.91
x2 = 0.3998 | 1005.51 | 1000.64 | 995.8 | 990.94 | 2.511 | 2.257 | 2.041 | 1.87
x2 = 0.4999 | 1007.57 | 1002.66 | 997.738 | 992.806 | 2.452 | 2.2 | 1.991 | 1.818
x2 = 0.6001 | 1009.68 | 1004.68 | 999.671 | 994.651 | 2.385 | 2.137 | 1.932 | 1.763
x2 = 0.6998 | 1011.95 | 1006.87 | 1001.77 | 996.689 | 2.293 | 2.053 | 1.854 | 1.69
x2 = 0.8001 | 1014.25 | 1009.04 | 1003.81 | 998.562 | 2.184 | 1.953 | 1.76 | 1.605
x2 = 0.9 | 1016.16 | 1010.8 | 1005.43 | 1000.06 | 2.046 | 1.827 | 1.642 | 1.496
